We go through 8 compounds from publication PMC6438725 (Arthritis & rheumatology (Hoboken, N.J.), 2019).

Where “and” joins values, the source holds several entries; their conditions need not be identical. Equal entries are not always repeated. Non-standard residues stand in square brackets, D forms with d. Residues, ends and D or L forms follow the SMILES beside them. No end group written: not given here. Cit = NC(=O)NCCC[C@H](N)C(=O)O

The first test deals with DR0401 (HLA-DRB1*04:01) (Homo sapiens, UniProt P01903+P01911, A100K/A169T/F76Y/I96L/K127E/L162R/M171V/N62H/P40V/Q125Y/R42H/S133A/S149N/S66Y/V115G/V209L/W38E). Nature of the test: Peptide binding to DR0401.
Conditions: not given
As for `CC[C@H](C)[C@H](NC(=O)[C@@H]1CCCN1C(=O)[C@H](Cc1ccc(O)cc1)NC(=O)[C@H](CCCNC(N)=O)NC(=O)[C@H](CC(C)C)NC(=O)[C@H](CO)NC(=O)CNC(=O)[C@H](CC(=O)O)NC(=O)[C@H](C)NC(=O)[C@H](CC(C)C)NC(=O)[C@H](Cc1c[nH]c2ccccc12)NC(=O)CNC(=O)[C@H](C)NC(=O)[C@H](Cc1ccc(O)cc1)NC(=O)[C@H](CS)NC(=O)[C@@H](N)CCCCN)C(=O)N[C@H](C(=O)O)C(C)C` [agg 621] (H-KCYAGWLADGSL[Cit]YPIV-OH), the EC50 was 6.9 µM and 4.66 µM. For `CC(C)C[C@H](NC(=O)[C@H](CS)NC(=O)[C@H](Cc1ccccc1)NC(=O)[C@@H]1CCCN1C(=O)[C@H](CO)NC(=O)[C@@H](N)CC(N)=O)C(=O)N[C@@H](CCC(=O)O)C(=O)N[C@@H](CCCNC(N)=O)C(=O)N[C@H](C(=O)N1CCC[C@H]1C(=O)N[C@@H](CC(C)C)C(=O)NCC(=O)N[C@@H](CO)C(=O)N1CCC[C@H]1C(=O)N[C@@H](CC(=O)O)C(=O)N1CCC[C@H]1C(=O)N[C@@H](C)C(=O)O)[C@@H](C)O` [agg 684] (H-NSPFCLE[Cit]TPLGSPDPA-OH), the EC50 was 0.12 µM and 0.13 µM.

As to `CC(C)C[C@H](NC(=O)[C@H](CCCNC(N)=O)NC(=O)[C@H](CC(=O)O)NC(=O)[C@@H](NC(=O)[C@H](Cc1ccccc1)NC(=O)[C@H](CS)NC(=O)[C@H](Cc1ccc(O)cc1)NC(=O)[C@@H](NC(=O)[C@@H](N)CC(=O)O)C(C)C)C(C)C)C(=O)N[C@@H](CCC(=O)O)C(=O)NCC(=O)N[C@@H](CCC(=O)O)C(=O)N[C@H](C(=O)N[C@@H](Cc1ccccc1)C(=O)N[C@@H](Cc1ccccc1)C(=O)N[C@@H](C)C(=O)O)C(C)C` [agg 568] (H-DVYCFVD[Cit]LEGEVFFA-OH), the EC50 is 23.4 µM and 3.06 µM.

`CC(C)C[C@H](NC(=O)[C@H](CCCNC(N)=O)NC(=O)[C@@H](NC(=O)[C@H](C)NC(=O)[C@H](Cc1ccccc1)NC(=O)[C@H](Cc1ccccc1)NC(=O)[C@@H](NC(=O)[C@@H](N)CCC(=O)O)C(C)C)[C@@H](C)O)C(=O)N[C@@H](CCC(=O)O)C(=O)N[C@@H](CCC(N)=O)C(=O)N[C@@H](Cc1ccccc1)C(=O)N[C@H](C(=O)N[C@@H](Cc1ccccc1)C(=O)N[C@@H](CCC(N)=O)C(=O)N[C@@H](CCC(=O)O)C(=O)O)[C@@H](C)O` [agg 579] (H-EVFFAT[Cit]LEQFTFQE-OH): the EC50 is 78.4 µM and 15.3 µM. Still for that read-out and setting: the same measure for `CC[C@H](C)[C@H](NC(=O)[C@@H](NC(=O)[C@H](CCCNC(N)=O)NC(=O)[C@H](CC(C)C)NC(=O)[C@@H](NC(=O)[C@@H](NC(=O)[C@H](Cc1ccccc1)NC(=O)[C@@H](NC(=O)[C@H](Cc1c[nH]c2ccccc12)NC(=O)[C@H](CC(C)C)NC(=O)[C@H](CC(C)C)NC(=O)[C@@H](N)[C@@H](C)O)C(C)C)C(C)C)[C@@H](C)O)C(C)C)C(=O)N[C@H](C(=O)N[C@@H](C)C(=O)N[C@@H](C)C(=O)N[C@H](C(=O)N[C@H](C(=O)N[C@H](C(=O)O)C(C)C)[C@@H](C)O)C(C)C)[C@@H](C)O` [agg 3-20] (H-TLLWVFVTL[Cit]VITAAVTV-OH): 35.3 µM and 36.1 µM; for `CC(C)C[C@H](NC(=O)[C@H](CO)NC(=O)[C@H](Cc1ccc(O)cc1)NC(=O)[C@H](CCCNC(N)=O)NC(=O)[C@@H](NC(=O)[C@@H]1CCCN1C(=O)CNC(=O)[C@@H]1CCCN1C(=O)[C@H](CCCNC(N)=O)NC(=O)[C@H](Cc1ccc(O)cc1)NC(=O)[C@H](Cc1c[nH]cn1)NC(=O)[C@H](Cc1ccccc1)NC(=O)[C@@H](NC(=O)[C@@H](NC(=O)CN)C(C)C)C(C)C)[C@@H](C)O)C(=O)N[C@H](C(=O)N[C@@H](Cc1ccccc1)C(=O)O)[C@@H](C)O` [agg 477] (H-GVVFHY[Cit]PGPT[Cit]YSLTF-OH): 14.7 µM and > 100 µM; for `CC[C@H](C)[C@H](NC(=O)[C@@H]1CCCN1C(=O)[C@H](Cc1ccc(O)cc1)NC(=O)[C@H](CCCNC(N)=O)NC(=O)[C@@H](NC(=O)[C@H](CO)NC(=O)[C@H](CCCNC(N)=O)NC(=O)[C@H](CC(=O)O)NC(=O)[C@H](C)NC(=O)[C@H](CC(C)C)NC(=O)[C@H](Cc1c[nH]c2ccccc12)NC(=O)CNC(=O)[C@H](C)NC(=O)[C@@H](N)CO)C(C)C)C(=O)N[C@@H](CO)C(=O)N[C@@H](CCCCN)C(=O)O` [agg 298-313] (H-SAGWLAD[Cit]SV[Cit]YPISK-OH): 1.9 µM and 2.94 µM.

The same test, now with this note: data not shown.
In the case of “VVLLVATEG[Cit]VRVNSAYQDK [cit-Agg84, reference compound]”, the “Binding to DR0401 (in words)” value is recorded as “very low affinity”.
